Measured values from patent US20110028686A1, “Protein binding miniature proteins” (Yale University, priority 2000, published 2011).
Several values for one entry are separate records, joined by “and”; a condition that tells them apart may be missing. Identical values can stand only once. Like-named read-outs stand apart in the source and are kept apart here. Ends that are not written are not given here. Peptide text beside a SMILES is read from it. * marks the point of attachment. X1 = C[C@]12O[C@H](C[C@]1(O)C(=O)NCCCCCCCCNC(=O)C*)n1c3ccccc3c3c4c(c5c6ccccc6n2c5c31)CNC4=O

Assays:
CBP KIX Y658F = target: T1, CBP KIX Y658F (Mus musculus, UniProt P45481, Y658F); assay: Equilibrium fluorescence polarization, CBP KIX variant Y658F; type: binding; details: 25° C.
T1 construct: made in house; host or cells: E. coli BL21(DE3) pArg

CBP KIX K662A = target: T2, CBP KIX K662A (Mus musculus, UniProt P45481, K662A); assay: Equilibrium fluorescence polarization, CBP KIX variant K662A; type: binding; details: 25° C.
T2 construct: made in house; host or cells: E. coli BL21(DE3) pArg

CBP KIX E655A = target: T3, CBP KIX E655A (Mus musculus, UniProt P45481, E655A); assay: Equilibrium fluorescence polarization, CBP KIX variant E655A; type: binding; details: 25° C.
T3 construct: made in house; host or cells: E. coli BL21(DE3) pArg

CBP KIX I660A = target: T4, CBP KIX I660A (Mus musculus, UniProt P45481, I660A); assay: Equilibrium fluorescence polarization, CBP KIX variant I660A; type: binding; details: 25° C.
T4 construct: made in house; host or cells: E. coli BL21(DE3) pArg

CBP KIX Q661A = target: T5, CBP KIX Q661A (Mus musculus, UniProt P45481, Q661A); assay: Equilibrium fluorescence polarization, CBP KIX variant Q661A; type: binding; details: 25° C.
T5 construct: made in house; host or cells: E. coli BL21(DE3) pArg

CBP KIX Y658A = target: T6, CBP KIX Y658A (Mus musculus, UniProt P45481, Y658A); assay: Equilibrium fluorescence polarization, CBP KIX variant Y658A; type: binding; details: 25° C.
T6 construct: made in house; host or cells: E. coli BL21(DE3) pArg

CBP KIX L603A = target: T7, CBP KIX L603A (Mus musculus, UniProt P45481, L603A); assay: Equilibrium fluorescence polarization, CBP KIX variant L603A; type: binding; details: 25° C.
T7 construct: made in house; host or cells: E. coli BL21(DE3) pArg

CBP KIX K606A = target: T8, CBP KIX K606A (Mus musculus, UniProt P45481, K606A); assay: Equilibrium fluorescence polarization, CBP KIX variant K606A; type: binding; details: 25° C.
T8 construct: made in house; host or cells: E. coli BL21(DE3) pArg

Carbonic anhydrase II [1] = target: T9, Carbonic anhydrase II (Homo sapiens, UniProt P00918); assay: Fluorescence polarization specificity, carbonic anhydrase II; type: binding; details: carbonic anhydrase II as target protein; read-out: Kd CA
T9 construct: purchased Sigma
Excerpt: (§1) Given the myriad protein surfaces present in the cell, the utility of molecules that recognize protein surfaces will depend on their ability to interact selectively with the desired protein.

[2] = target: T10, HisKIX (His-tagged CBP KIX domain) (Mus musculus, UniProt P45481); assay: Equilibrium fluorescence polarization, HisKIX binding; details: 25° C.
T10 construct: The CBP KIX-coding region (residues 586 to 672) of pGEX-KT KIX 10-672; made in house; host or cells: E. coli BL21(DE3) pArg

CBP KIX LL652-3AA = target: T11, CBP KIX LL652-3AA (Mus musculus, UniProt P45481, L652A/L653A); assay: Equilibrium fluorescence polarization, CBP KIX variant LL652-3AA; type: binding; details: 25° C.
T11 construct: made in house; host or cells: E. coli BL21(DE3) pArg

CBP KIX Y650A = target: T12, CBP KIX Y650A (Mus musculus, UniProt P45481, Y650A); assay: Equilibrium fluorescence polarization, CBP KIX variant Y650A; type: binding; details: 25° C.
T12 construct: made in house; host or cells: E. coli BL21(DE3) pArg

CBP KIX wild type = target: T13, CBP KIX wild type (Mus musculus, UniProt P45481); assay: Equilibrium fluorescence polarization, wild type CBP KIX; type: binding; details: 25° C.
T13 construct: made in house; host or cells: E. coli BL21(DE3) pArg

Calmodulin [3] = target: T14, Calmodulin (Homo sapiens, UniProt P0DP23); assay: Fluorescence polarization specificity, calmodulin; type: binding; details: calmodulin as target protein; read-out: Kd CalM
T14 construct: purchased Sigma
Excerpt: as §1

CBP KIX I657A = target: T15, CBP KIX I657A (Mus musculus, UniProt P45481, I657A); assay: Equilibrium fluorescence polarization, CBP KIX variant I657A; type: binding; details: 25° C.
T15 construct: made in house; host or cells: E. coli BL21(DE3) pArg

Carbonic anhydrase II [4] = target: T9, Carbonic anhydrase II; assay: Carbonic anhydrase II binding by fluorescence emission; details: PBS
Bcl-2 = Bcl-2 (Homo sapiens, UniProt P10415); assay: Bcl-2 binding by fluorescence emission of fluorescein-labeled peptide; details: read-out: Kd for binding to Bcl-2, 4° C., PBS
Calmodulin [5] = target: T14, Calmodulin; assay: Calmodulin binding by fluorescence emission
[6] = Circular dichroism thermal denaturation; type: physicochemical; details: far UV circular dichroism at 222 nm
Experimental: Spectra were acquired in 0.5×PBS at 25° C. using a Aviv Model 62DS spectrometer. […] Each data set represents the average of 10 scans. Spectra were background corrected but were not smoothed. (b) Temperature dependence of the CD spectrum of pP53-05. ΘMRE is in units of deg·cm^2·dmol^−1.
Circular dichroism spectra were recorded in PBS on an Aviv 202 CD Spectrometer and were background corrected but not smoothed. Wavelength scans were performed at 4° C. between 200 and 260 nm at 1 nm intervals with a recording time of five seconds at each interval. Bak (72-94), 4099, 4100, 4101, 4102 were used at concentrations of 0.028 mM, 0.0069 mM, 0.0119 mM, 0.014 mM and 0.016 mM respectively. Thermal denaturation curves were measured at 222 nm between 4-98° C. with 2° C. steps and one minute equilibration at each temperature. Peptides were used at the highest concentrations used for the wavelength scans described above. Mean residue elliptcity and percent helicity were calculated from the value at 222 nm after background correction.

[7] = target: cGMP-dependent protein kinase (PKG); assay: Phosphotransferase assay, PKG; type: biochemical
[8] = target: protein kinase Cα (PKC-α) (Homo sapiens, UniProt P17252); assay: Phosphotransferase assay, PKC-α; type: biochemical; details: 1-K252a up to 100 nM; 1 up to 5 μM
[9] = test system: Ca++/calmodulin kinase II (CamKII); assay: Phosphotransferase assay, CamKII; type: biochemical; details: 1-K252a up to 100 nM; 1 up to 5 μM
PKA = PKA (Homo sapiens, UniProt P17612); assay: PKA phosphotransferase assay, streptavidin-matrix capture of [32P]-phosphorylated substrates; type: biochemical
Akt kinase (PKB) = Akt kinase (PKB) (Homo sapiens, UniProt P31749); assay: Phosphotransferase assay, PKB; type: biochemical; details: 1-K252a up to 100 nM; 1 up to 5 μM
Chain of Akt kinase (PKB) (P31749 whole entry, species assumed): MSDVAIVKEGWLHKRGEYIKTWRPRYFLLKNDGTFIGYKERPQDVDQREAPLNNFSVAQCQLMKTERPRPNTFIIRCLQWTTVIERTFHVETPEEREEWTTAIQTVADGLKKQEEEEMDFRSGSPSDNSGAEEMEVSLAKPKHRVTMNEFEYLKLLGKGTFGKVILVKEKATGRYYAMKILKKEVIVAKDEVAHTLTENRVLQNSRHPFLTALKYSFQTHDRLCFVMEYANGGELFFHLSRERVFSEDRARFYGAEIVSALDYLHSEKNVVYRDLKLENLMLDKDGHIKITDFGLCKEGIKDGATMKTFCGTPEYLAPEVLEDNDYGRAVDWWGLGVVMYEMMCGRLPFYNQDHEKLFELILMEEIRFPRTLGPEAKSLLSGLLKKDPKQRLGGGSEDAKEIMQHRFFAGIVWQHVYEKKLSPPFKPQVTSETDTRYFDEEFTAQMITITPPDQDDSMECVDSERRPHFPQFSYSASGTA

T6 sequence (P45481 586-665 Y658A limits assumed): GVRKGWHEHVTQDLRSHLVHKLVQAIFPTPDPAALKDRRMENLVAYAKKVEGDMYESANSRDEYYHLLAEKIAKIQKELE
T10 sequence (P45481 586-672): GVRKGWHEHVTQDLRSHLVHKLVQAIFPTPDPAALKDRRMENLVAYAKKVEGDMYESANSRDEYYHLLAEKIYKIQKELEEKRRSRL
T13 sequence (P45481 586-665 limits assumed): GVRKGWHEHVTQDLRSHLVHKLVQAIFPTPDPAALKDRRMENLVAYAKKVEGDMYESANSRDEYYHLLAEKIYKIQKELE
T3 sequence (P45481 586-665 E655A limits assumed): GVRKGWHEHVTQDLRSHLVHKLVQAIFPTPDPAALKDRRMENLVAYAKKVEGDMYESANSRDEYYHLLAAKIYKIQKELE
T1 sequence (P45481 586-665 Y658F limits assumed): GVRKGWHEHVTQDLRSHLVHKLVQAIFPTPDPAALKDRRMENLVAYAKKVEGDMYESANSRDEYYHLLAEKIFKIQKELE
T4 sequence (P45481 586-665 I660A limits assumed): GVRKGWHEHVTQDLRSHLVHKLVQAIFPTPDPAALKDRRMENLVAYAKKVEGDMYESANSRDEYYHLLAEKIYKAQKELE
T11 sequence (P45481 586-665 L652A/L653A): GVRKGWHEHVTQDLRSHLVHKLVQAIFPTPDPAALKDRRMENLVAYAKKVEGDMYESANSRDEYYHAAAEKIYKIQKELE
T2 sequence (P45481 586-665 K662A limits assumed): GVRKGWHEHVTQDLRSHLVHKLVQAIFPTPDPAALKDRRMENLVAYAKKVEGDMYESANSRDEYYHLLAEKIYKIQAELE
T8 sequence (P45481 586-665 K606A limits assumed): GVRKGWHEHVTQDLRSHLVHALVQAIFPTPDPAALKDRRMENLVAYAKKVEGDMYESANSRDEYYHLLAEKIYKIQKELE
T7 sequence (P45481 586-665 L603A limits assumed): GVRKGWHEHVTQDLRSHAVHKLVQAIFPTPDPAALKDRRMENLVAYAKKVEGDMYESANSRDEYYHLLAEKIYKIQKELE
Chain of Bcl-2 (P10415 1-205): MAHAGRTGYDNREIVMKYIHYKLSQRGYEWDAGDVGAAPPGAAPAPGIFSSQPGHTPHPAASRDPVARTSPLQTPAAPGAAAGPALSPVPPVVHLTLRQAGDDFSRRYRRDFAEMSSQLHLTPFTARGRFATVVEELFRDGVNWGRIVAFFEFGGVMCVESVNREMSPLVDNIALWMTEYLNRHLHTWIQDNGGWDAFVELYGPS
T15 sequence (P45481 586-665 I657A limits assumed): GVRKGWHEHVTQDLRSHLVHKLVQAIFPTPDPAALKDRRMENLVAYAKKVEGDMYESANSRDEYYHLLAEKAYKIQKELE
T12 sequence (P45481 586-665 Y650A limits assumed): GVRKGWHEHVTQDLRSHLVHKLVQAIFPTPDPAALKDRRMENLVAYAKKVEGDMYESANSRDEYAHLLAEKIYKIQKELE
T5 sequence (P45481 586-665 Q661A limits assumed): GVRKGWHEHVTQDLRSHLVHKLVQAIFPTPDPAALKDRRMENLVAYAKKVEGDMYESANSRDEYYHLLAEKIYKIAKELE

CC[C@H](C)[C@H](NC(=O)[C@H](Cc1ccc(O)cc1)NC(=O)[C@H](Cc1ccccc1)NC(=O)[C@H](Cc1ccccc1)NC(=O)[C@H](COP(=O)(O)O)NC(=O)[C@H](CC(C)C)NC(=O)[C@H](CCCNC(=N)N)NC(=O)[C@H](CCCNC(=N)N)NC(=O)[C@@H](NC(=O)[C@@H]1CCCN1C(=O)[C@H](C)NC(=O)[C@H](CC(=O)O)NC(=O)[C@H](CC(=O)O)NC(=O)CNC(=O)[C@@H]1CCCN1C(=O)[C@H](Cc1ccc(O)cc1)NC(=O)[C@@H](NC(=O)[C@@H]1CCCN1C(=O)[C@H](CCC(N)=O)NC(=O)[C@H](CO)NC(=O)[C@@H]1CCCN1C(=O)CN)[C@@H](C)O)C(C)C)C(=O)N[C@@H](CC(C)C)C(=O)N[C@@H](CC(C)C)C(=O)N[C@@H](CC(=O)O)C(=O)N[C@@H](CC(C)C)C(=O)N[C@@H](Cc1ccc(O)cc1)C(=O)N[C@@H](CC(C)C)C(=O)N[C@@H](CC(=O)O)C(=O)N[C@@H](C)C(=O)N1CCC[C@H]1C(=O)NCC(=O)N[C@H](C(=O)N[C@@H](CSCC(=O)Nc1ccc2c(c1)C(=O)OC21c2ccc(O)cc2Oc2cc(O)ccc21)C(N)=O)C(C)C [PPKID4]
Kd (CBP KIX Y658F): 4.1 ± 0.2 µM
Kd (CBP KIX K662A): 3.9 ± 0.3 µM
Kd (CBP KIX E655A): 0.54 ± 0.05 µM
Kd (CBP KIX I660A): 1.1 ± 0.1 µM
Kd (CBP KIX Q661A): 1.1 ± 0.1 µM
Kd (CBP KIX Y658A): 4.1 µM and 3.9 µM
Kd (CBP KIX L603A): 3.4 ± 0.5 µM
Kd (CBP KIX K606A): 3.1 ± 0.2 µM
Kd (Carbonic anhydrase II [1]): 106 ± 12 µM
Kd ([2]; fluorescein-labeled phosphopeptide, read-out: Kd HisKIX, phosphorylated peptide (P)): 0.515 ± 0.044 µM
Kd ([2]; fluorescein-labeled unphosphorylated peptide, read-out: Kd HisKIX, unphosphorylated peptide (U)): 12.1 ± 2.4 µM
Kd (CBP KIX LL652-3AA): 2.9 ± 0.2 µM
Kd (CBP KIX Y650A): 3 ± 0.3 µM
Kd (CBP KIX wild type): 0.61 ± 0.04 µM
Kd (Calmodulin [3]): 51 µM and 52 µM
Kd (CBP KIX I657A): 2.7 ± 0.1 µM

CC[C@H](C)[C@H](NC(=O)[C@H](CC(C)C)NC(=O)[C@H](CC(=O)O)NC(=O)[C@H](CCC(=O)O)NC(=O)[C@@H](NC(=O)[C@@H]1CCCN1C(=O)[C@H](C)NC(=O)[C@H](CC(=O)O)NC(=O)[C@H](CC(=O)O)NC(=O)CNC(=O)[C@@H]1CCCN1C(=O)[C@H](Cc1ccc(O)cc1)NC(=O)[C@@H](NC(=O)[C@@H]1CCCN1C(=O)[C@H](CCC(N)=O)NC(=O)[C@H](CO)NC(=O)[C@@H]1CCCN1C(=O)CN)[C@@H](C)O)C(C)C)C(=O)N[C@@H](CCCNC(=N)N)C(=O)N[C@@H](Cc1ccccc1)C(=O)N[C@H](C(=O)NCC(=O)N[C@@H](CCCNC(=N)N)C(=O)N[C@@H](CC(C)C)C(=O)N[C@@H](CC(C)C)C(=O)N[C@@H](C)C(=O)N[C@@H](Cc1ccc(O)cc1)C(=O)N[C@@H](Cc1ccccc1)C(=O)NCC(=O)N[C@@H](CC(=O)O)C(=O)N[C@H](C(=O)N[C@H](C(=O)N[C@@H](CC(N)=O)C(=O)N[C@@H](CCCNC(=N)N)C(=O)N[C@@H](CCCNC(=N)N)C(N)=O)[C@@H](C)CC)[C@@H](C)O)C(C)C [p4099] (H-GPSQPTYPGDDAPVEDLIRFVGRLLAYFGDTINRR-NH2)
Kd (Carbonic anhydrase II [4]): 8.6 µM
Kd (Bcl-2): 0.352 ± 0.033 µM
Kd (Calmodulin [5]): 25 ± 4 µM
Tm, cooperative thermal melt [6]: approximately 65 °C

GPSQPTYPGDDAPVEDLIRFYNDLTYYLFVVSGRTGRRNC(X1)IHD-NH2 (C-terminus assumed) [1-K252a]
IC50 [7]: 0.679 ± 0.202 µM
inhibition of PKC-α phosphotransferase activity [8]: inhibiting no other kinase tested
inhibition of CamKII phosphotransferase activity [9]: inhibiting no other kinase tested
fold more potent than 1 alone (PKA) (PKA): 30 fold
inhibition of PKB phosphotransferase activity (Akt kinase (PKB)): inhibiting no other kinase tested
